According to patent US9771430B2, “Method of treating a metabolic disorder induced by obesity in a subject in need thereof by administering MK2/3 inhibitors” (THE TRUSTEES OF COLUMBIA UNIVERSITY IN THE CITY OF NEW YORK, priority 2011, dated 2017):

How the values were obtained:
CaMKII [1] = type: cell-based, mouse
Description: FIG. 1A. CaMKII enzyme activity was assayed in triplicate wells of primary mouse HCs stimulated with 100 nM glucagon (Gluc) or vehicle control (Veh) for the indicated times (*P<0.05 and **P<0.01 vs. Veh; mean±S.E.M.). FIGS. 1B-1J. Extracts of HCs or liver were probed for phospho-CaMKII, total CaMKII, and β-actin by immunoblot assay. FIG. 1B. HCs were incubated with […] glucagon for the indicated times; FIG. 1C. Glucagon was added to HCs that were pre-treated for 1 h with vehicle control (Veh) or 5 μM BAPTA-AM; FIG. 1D. Glucagon was added to HCs that were pre-treated with 0.5 μM xestospongin (XesC) or to HCs from Ip3r1fl/fl mice transduced with adeno-LacZ control or adeno-Cre (bar graph=Ip3r1 mRNA levels); FIG. 1E. Glucagon was added to HCs that were pre-treated for 1 h with vehicle control (Veh) or 10 μM H89. FIG. 1F. […] FIGS. 1G-1J. In vivo experiments. In FIG. 1G, mice were treated for 30 min with 200 μg kg−1 body weight of glucagon i.p., and in FIG. 1H, mice were pre-treated with 10 pmol g−1 xestospongin C or vehicle control i.p. 4 days prior to glucagon treatment. In FIGS. 1I-1J, mice were fed ad libitum or fasted for 12 h, or fasted for 12 h and then re-fed for 4 h.
Total RNA was extracted from hepatocytes using the RNeasy kit (Qiagen). cDNA was synthesized from 2 μg total RNA using oligo (dT) and Superscript II (Invitrogen). Real-time qPCR analysis and western blotting were performed as previously described (Timmins et al., 2009). Nuclear extraction from liver was performed using the Nuclear Extraction Kit from Panomics according to the manufacturer's instructions.
(§1) Immunoblot and RT-qPCR assays were performed as previously described (Timmins et al., 2009). Total RNA was extracted from HCs using the RNeasy kit (Qiagen). cDNA was synthesized from 2 μg total RNA using oligo (dT) and Superscript II (Invitrogen). Nuclear extraction from liver was performed using the Nuclear Extraction Kit from Panomics according to the manufacturer's instructions.

CRTC2 = CRTC2 dephosphorylation and nuclear translocation in primary hepatocytes; type: cell-based, mouse; conditions: inhibitor pre-treatment 1 h, glucagon 100 nM
Description: (§2) HEK293T (ATCC) cells were cultured in DMEM containing 10% FBS (HyClone), […] penicillin-streptomycin. Mouse primary hepatocytes were isolated and cultured as previously described (18). Cellular fractionation studies were conducted as previously reported (18). For reporter studies, Ad-CRE-luc infected hepatocytes (1 pfu per cell) were exposed to glucagon (Gcg, 100 nM) for 2˜4 h. For cyclosporine A (CsA, 10 μM) or okadaic acid (OA, 100 nM) or cell permeable calcineurin autoinhibitory peptide (10 μM) or CN585 (100 μM) or Calyculin A (10 nM) or Xestospongin C (Xc, 2 μM) or H89 (30 μM) or BAPTA (50 μM) inhibition, hepatocytes were pre-treated with the inhibitors for one hour. Luciferase activities were normalized to β-galactosidase activity from adenoviral-encoded RSV β-gal. Calcineurin activity (test kit from Enzo Life Sciences) and cellular cAMP levels (test kit from Cayman Chemical Company) were measured according to manufacturer's instructions.
(§3) Immunoblot, immunoprecipitation, and immunostaining assays were performed as described (18). CRTC2, pCREB (Ser133), CREB, pAKT (Thr308), AKT, tubulin, HA, and FLAG antibodies were previously described (18). The antibodies anti-InsP3R1 (A302-158A) and InsP3R3 (A302-160A) were purchased from Bethyl Laboratories, anti-InsP3R2 (ab77838) from Abcam, anti-Calcineurin (610260) from BD Biosciences, anti-GRP78 (ADI-SPA-826-F) from Enzo Life Sciences, anti-phospho-PKA substrate (RRXS/T, 9624), anti-phospho-AKT substrate (RXXS/T, 9614) and CRTC2 (pS171, 2892) from Cell Signaling. CRTC2 (pS275) antibody was employed as described (19).

[2] = system: CRE-luciferase (luc) reporter; experiment: CRE-luciferase reporter activity in primary hepatocytes; type: cell-based, mouse; conditions: response to glucagon
Description: as §2

CREB = experiment: PKA-mediated phosphorylation of CREB in hepatocytes; type: cell-based, mouse
Description: as §3

G6pc and Pck1 mRNA = G6pc and Pck1 mRNA (RT-qPCR) in primary mouse hepatocytes; type: cell-based
Description: FIG. 32A-E. Related to FIG. 26—p38. FIG. 32A Mice were fed ad libitum or fasted for 12 h. Liver phospho-p38, total p38, p-MK2, total MK-2, and β-actin were assayed by immunoblot. FIG. 32B WT HCs were serum-depleted overnight and then incubated for 5 h with 100 nm glucagon in serum-free media with or without SB202190; or glucagon was added to HCs from P38a^fl/fl mice treated with adeno-LacZ (control) or adeno-Cre. RNA was assayed for G6pc and Pck1 mRNA (*P<0.05; mean±S.E.M.). FIG. 32C HCs from fasting WT and Camk2g^−/− mice were assayed for p-p38, total p38, and β-actin. FIG. 32D WT mice were injected i.p. with 12.5 mg kg^−1 body weight of p38 inhibitor (SB202190) or vehicle control. 12 h later, the mice were injected with an additional dose of SB202190 and fasted overnight. The livers were assayed for nuclear FoxO1, nucleophosmin, p-MK2, total MK-2, and β-actin. The correlation between nuclear FoxO1 and p-MK2 band intensities is shown in the graph. FIG. 32E Adeno-GFP-FoxO1-transduced HCs were serum-depleted overnight, and then incubated for 5 h in serum-free media with SB202190 or vehicle (Veh) control. FoxO1 localization was assessed by indirect immunofluorescence (Bar, 10 μm; *P<0.05; mean±S.E.M.).
FIGS. 53A-B. MK-2 regulates hepatic FoxO1 subcellular localization and hepatic G6Pc and Pck1. FIG. 53A. Adeno-GFP-FoxO1-transduced HCs were serum-depleted overnight, and then incubated for 30 min in serum-free media with 2 uM MK-2 inhibitor or vehicle (Veh) control. FoxO1 localization was assessed by indirect immunofluorescence (Bar, […]; *P<0.005; mean±S.E.M.). FIG. 53B WT HCs were serum-depleted overnight and then incubated for 5 h with 100 nm glucagon in serum-free media with or without MK-2 inhibitor. RNA was assayed for G6pc and Pck1 mRNA (*P<0.005; mean±S.E.M.). MK-2 Inhibitor is from Calbiochem (cat#475864): 2-(2-Quinolin-3-ylpyridin-4-yl)-1,5,6,7-tetrahydro-4H-pyrrolo-[3,2-c]pyridin-4-one.
FIG. 69. MK-2 inhibitor suppresses forskolin-induced Pck1 and G6Pc induction in primary hepatocytes. Primary hepatocytes from WT mice were serum-depleted overnight and then pre-treated with 300 nM MK-2 inhibitor (compound 28) or vehicle for 1 h. Cells were then treated with 2 μM forskolin in serum-free media with or without the inhibitor for 4 h. RNA was assayed for G6pc and Pck1 mRNA by RT-qPCR. *, P<0.0001.
Primary mouse HCs were isolated from 8- to 12-week-old mice as described previously (Matsumoto et al., 2002). For most experiments, the HCs were serum-depleted overnight by incubation in medium containing 0.5% fetal calf serum and were then incubated for 5 h in serum-free media, with individual treatments noted in the figure legends. HCs were transduced with adenoviral constructs 12 h after plating, and experiments were conducted 24 h after transduction. Transfections with WT, 7A- and 9A-Foxo1 were carried out using jetPEI™-hepatocyte DNA transfection reagent (Polyplus-transfection, Inc.) according to manufacturer's instructions.
as §1, with “instructions. […] Whether their origin is alternative splicing or post-translational modification remains to be determined.” for “instructions.”

FoxO1 [3] = experiment: FoxO1 subcellular localization in primary mouse hepatocytes; type: cell-based; conditions: HCs treated with glucagon
Description: FIG. 24A HCs from WT and Camk2g^−/− mice were transduced with an adenovirus expressing murine GFP-FoxO1 at an MOI of 2. Cells were serum-depleted overnight and then incubated for 5 h in serum-free media. FoxO1 subcellular localization was assessed by indirect immunofluorescence. Bar, 10 μm. Data are quantified in the right panel. (^#P<0.0005; mean±S.E.M.). FIG. 24B HCs were transduced with adenoviral vectors expressing LacZ, CA-CaMKII, or KD-CaMKII at an MOI of 20 and then transduced 4 h later with adeno-GFP-FoxO1, followed by fluorescence microscopy and quantification as in FIG. 24A (^#P<0.005 vs. LacZ; mean±S.E.M.). Bar, 5 μm. FIG. 24C HCs were transduced with adeno-LacZ or CA-CaMKII and then adeno-GFP-FoxO1 as in FIG. 24B. After incubation in serum-depleted medium o.n. and then serum-free medium for 5 h, the cells were treated with 100 nM insulin for the indicated times. FoxO1 subcellular localization was quantified as in FIG. 24B (*P<0.005 vs. LacZ in each group; mean±S.E.M.).
Primary hepatocytes from WT mice were transduced with adeno-LacZ (LacZ) or adeno-DN-MK2 (DN-MK2) at an MOI of 1. […]

FoxO1 [4] = experiment: Nuclear FoxO1 in mouse liver (immunoblot of nuclear extracts); type: in vivo; conditions: fasting mice, 12.5 mg kg−1 i.p., two doses
Description: FIGS. 24A-D. CaMKII regulates hepatic FoxO1 subcellular localization. FIG. 24A HCs from WT and Camk2g^−/− mice were transduced with an adenovirus expressing murine GFP-FoxO1 at an MOI of 2. Cells were serum-depleted overnight and then incubated for 5 h in serum-free media. FoxO1 subcellular localization was assessed by indirect immunofluorescence. Bar, 10 μm. Data are quantified in the right panel. (^#P<0.0005; mean±S.E.M.). […] Bar, 5 μm. FIG. 24C HCs were transduced with adeno-LacZ or CA-CaMKII and then adeno-GFP-FoxO1 as in FIG. 24B. After incubation in serum-depleted medium o.n. and then serum-free medium for 5 h, the cells were treated with 100 nM insulin for the indicated times. FoxO1 subcellular localization was quantified as in FIG. 24B (*P<0.005 vs. LacZ in each group; mean±S.E.M.).
FIG. 32A-E. Related to FIG. 26—p38. FIG. 32A Mice were fed ad libitum or fasted for 12 h. Liver phospho-p38, total p38, p-MK2, total MK-2, and β-actin were assayed by immunoblot. […] FoxO1 localization was assessed by indirect immunofluorescence (Bar, 10 μm; *P<0.05; mean±S.E.M.).
Immunoblot and RT-qPCR assays were performed as previously described (Timmins et al., 2009). […] Whether their origin is alternative splicing or post-translational modification remains to be determined.

JNK = conditions: at 100 μM; cited from earlier work
p42 MAP kinase = p42 MAP kinase (Homo sapiens, UniProt P28482); conditions: at 100 μM; cited from earlier work
CaMKII [5] = conditions: WT Mφs, 4 h, 5 μM
Description: Immunoblots of pThr287-CaMKII in FIG. 15A WT, Insr−/−, and ob/obMφs±FC loading or oxLDL and FIG. 15B WT Mφs±4 h treatment with 5 μM U0126 ERK inhibitor.

cytosolic free calcium = experiment: Calcium mobilization in primary hepatocytes (Fura-2 imaging); type: cell-based, mouse; conditions: cells expressing wild-type InsP3R1
Description: Mouse primary hepatocytes were plated on glass coverslips and loaded with 5 μM Fura-2 acetoxymethyl ester (Molecular Probes) in the presence of 0.025% (w/v) pluronic F127 (Sigma-Aldrich) in Media 199 (Mediatech) for 30 minutes. […] The ratio of fluorescence intensity at the two excitation wavelengths was calculated after subtracting background fluorescence. [Ca2+]I (cytosolic free calcium concentration) was calculated using a Fura-2 calcium imaging calibration kit (Invitrogen). Images were collected and analyzed using the MetaFluor software package (Universal Imaging Corp.). Graphs represent average responses from groups of 30-40 individual cells from representative single experiments. Bar graphs represent average responses (fold over average baseline) from 150-200 cells per condition. All experiments were repeated at least three times with similar results.

calcineurin = experiment: Calcineurin activity in primary hepatocytes; type: cell-based, mouse; conditions: cells expressing wild-type InsP3R1
Description: as §2

[6] = system: InsP3R1, InsP3R2 and InsP3R3; experiment: InsP3R phosphorylation in hepatocytes (phospho-substrate antiserum immunoblot); type: cell-based, mouse; conditions: phospho-AKT substrate antiserum

Sequence of p42 MAP kinase (P28482 whole entry): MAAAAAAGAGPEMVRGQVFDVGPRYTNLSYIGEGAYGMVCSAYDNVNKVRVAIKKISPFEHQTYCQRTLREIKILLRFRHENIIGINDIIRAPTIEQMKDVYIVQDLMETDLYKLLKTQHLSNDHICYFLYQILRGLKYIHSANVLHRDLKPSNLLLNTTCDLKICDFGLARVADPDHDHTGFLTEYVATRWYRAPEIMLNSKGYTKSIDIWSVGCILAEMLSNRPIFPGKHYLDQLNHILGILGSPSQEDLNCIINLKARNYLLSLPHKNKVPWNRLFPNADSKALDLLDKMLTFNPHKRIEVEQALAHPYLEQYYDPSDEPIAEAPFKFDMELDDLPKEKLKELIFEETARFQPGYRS

CC(=O)OCOC(=O)CN(CC(=O)OCOC(C)=O)c1ccccc1OCCOc1ccccc1N(CC(=O)OCOC(C)=O)CC(=O)OCOC(C)=O [BAPTA-AM, 1,2-bis[2-aminophenoxy]ethane-N,N,N′,N′-tetraacetic acid tetrakis[acetoxymethyl ester]]
glucagon-induced CaMKII phosphorylation (CaMKII [1]; HCs pre-treated with inhibitor, then glucagon): markedly decreased
glucagon-induced dephosphorylation (and nuclear translocation) of CRTC2 (CRTC2): disrupted
CRE-luciferase (luc) reporter activity / activation [2]: disrupted
PKA-mediated phosphorylation of CREB in response to glucagon (CREB): did not block

O=C1NCCc2[nH]c(-c3ccnc(-c4cnc5ccccc5c4)c3)cc21 [MK2 inhibitor, 2-(2-Quinolin-3-ylpyridin-4-yl)-1,5,6,7-tetrahydro-4H-pyrrolo-[3,2-c]pyridin-4-one]
nuclear FoxO1 and induction of genes involved in hepatic glucose production (G6pc and Pck1 mRNA; 2 uM MK-2 inhibitor, glucagon 100 nm 5 h (FIG. 53)): importance of MK2 in both nuclear FoxO1 and in induction of genes

Oc1ccc(-c2nc(-c3ccncc3)c(-c3ccc(F)cc3)[nH]2)cc1 [SB202190]
expression of G6pc and Pck1 (G6pc and Pck1 mRNA; glucagon-stimulated HC): blocked
nuclear GFP-FoxO1 (FoxO1 [3]): decreased
nuclear FoxO1 in liver as a function of p38 inhibition (p-MK2) (FoxO1 [4]): clear decrease

C[S+]([O-])c1ccc(-c2nc(-c3ccncc3)c(-c3ccc(F)cc3)[nH]2)cc1 (stereo not drawn) [SB203580]
inhibition of JNK (JNK): does not significantly inhibit
inhibition of p42 MAP kinase (p42 MAP kinase): does not significantly inhibit

N#CC(=C(/N)Sc1ccccc1N)/C(C#N)=C(\N)Sc1ccccc1N [U0126]
p-CaMKII (CaMKII [5]): increase

C1CNC1 [azetidine]
p-CaMKIIγ in HCs (CaMKII [1]; ER stress activation): increased

C=C[C@@]1(C)CC(=O)[C@]2(O)[C@@]3(C)[C@@H](O)CCC(C)(C)[C@@H]3[C@H](O)[C@H](OC(C)=O)[C@@]2(C)O1 [forskolin]
G6pc mRNA, untreated WT HCs lower than forskolin-treated WT HCs (G6pc and Pck1 mRNA; forskolin 10 μM): ~165 fold
Pck1 mRNA, untreated WT HCs lower than forskolin-treated WT HCs (G6pc and Pck1 mRNA; forskolin 10 μM): ~2500 fold

C=C1[C@@H](O)[C@@H]2O[C@]3(CC[C@H](/C=C/[C@@H](C)[C@@H]4CC(C)=C[C@@]5(O[C@H](C[C@@](C)(O)C(=O)O)CC[C@H]5O)O4)O3)CC[C@H]2O[C@@H]1[C@@H](O)C[C@H](C)[C@H]1O[C@@]2(CCCCO2)CC[C@H]1C [okadaic acid]
glucagon-induced dephosphorylation (and nuclear translocation) of CRTC2 (CRTC2): did not

insulin: hormone
glucagon-dependent increases in calcium mobilization (cytosolic free calcium): reduced
glucagon-dependent increases in calcineurin activation (calcineurin): reduced
InsP3R phosphorylation [6]: increased
